Measurements published in patent US12691107B2, “Methods for the treatment and prevention of lung infections caused by gram-positive bacteria, fungus, or virus by administration of tafenoquine” (priority 2020, dated 2026).
In brackets after ≈: the same amount, converted by molar mass. Read-outs that look alike come from different tables or passages of the source.

Columns and labels:
[1] = tested on: Curvularia sp.; test: Antifungal MIC (RPMI-1640 microdilution); assay type: cell-based
[2] = tested on: Exserohilum sp.; test: Antifungal MIC (RPMI-1640 microdilution); assay type: cell-based
[3] = tested on: P. aeruginosa; test: Antibacterial MIC (broth microdilution); assay type: cell-based; details: Pseudomonas aeruginosa
[4] = tested on: Apophysomyces sp.; test: Antifungal MIC (RPMI-1640 microdilution); assay type: cell-based
[5] = tested on: Enterococcus faecium; test: Antibacterial MIC (broth microdilution); assay type: cell-based; details: isolate 1593
[6] = tested on: Fusarium sp.; test: Antifungal MIC (RPMI-1640 microdilution); assay type: cell-based
[7] = tested on: Staphylococcus aureus; test: Antibacterial MIC (broth microdilution); assay type: cell-based
[8] = tested on: Emergomyces sp.; test: Antifungal MIC (RPMI-1640 microdilution); assay type: cell-based
[9] = tested on: Blastomyces dermatitidis; test: Antifungal MIC (RPMI-1640 microdilution); assay type: cell-based
[10] = tested on: Altenaria sp.; test: Antifungal MIC (RPMI-1640 microdilution); assay type: cell-based; details: isolate Alt1
[11] = tested on: Candida albicans; test: Antifungal MIC (RPMI-1640 microdilution); assay type: cell-based
[12] = tested on: C. krusei; test: Antifungal MIC (RPMI-1640 microdilution); assay type: cell-based; details: Pichia kudriavzevii, isolate ATCC 6258
[13] = tested on: Histoplasma capsulatum; test: microbe, parasite or virus in culture; assay type: cell-based
[14] = tested on: Scedosporium sp.; test: Antifungal MIC (RPMI-1640 microdilution); assay type: cell-based
[15] = tested on: Aspergillus flavus; test: Antifungal MIC (RPMI-1640 microdilution); assay type: cell-based
[16] = tested on: P. variotii; test: Antifungal MIC (RPMI-1640 microdilution); assay type: cell-based; details: Paecilomyces variotii, isolate MYA-3630
[17] = tested on: A. baumannii; test: Antibacterial MIC (broth microdilution); assay type: cell-based; details: Acinetobacter baumannii
[18] = tested on: HFF, mouse embryo fibroblast and Guinea Pig Lung cells; details: range over all three cytomegalovirus assays
[19] = tested on: Aspergillus fumigatus clinical isolate 293 (Af293); test: Prophylactic efficacy in Aspergillus-infected immunosuppressed mice; assay type: in vivo, ICR mice; details: 2.5 or 5.0 mg/kg/day oral from day -2 through day +7
[20] = tested on: P. falciparum; details: seven strains, three repeat assays; cited from earlier work
[21] = tested on: M. tuberculosis [ATCC #27294]; test: MIC against M. tuberculosis in 7H9 media; assay type: cell-based; details: Mycobacterium tuberculosis
[22] = Plasma levels of tafenoquine in humans; details: human, in vivo
[23] = Blood cell:plasma partitioning experiments; assay type: in vitro ADME, human; details: humans
[24] = tested on: SARS-CoV-2; test: SARS-CoV-2 antiviral assay in CALU-3 cells; assay type: cell-based; details: Severe acute respiratory syndrome coronavirus 2, medium with 10% fetal bovine serum, read-out: EC50 (same as IC50 of FIG. 4)
[25] = tested on: Pneumocystis; test: Pneumocystis pneumonia in rats, therapy or prophylaxis

## COc1cc(C)c2c(Oc3cccc(C(F)(F)F)c3)c(OC)cc(NC(C)CCCN)c2n1.O=C(O)CCC(=O)O (centres unmarked) [Tafenoquine Succinate]
[1]; read-out: MIC 50% inhibition, isolate Curv1
  MIC50: 2 µg/mL
[1]; read-out: MIC 100% inhibition, isolate Curv1
  MIC: 8 µg/mL
[2]; read-out: MIC 50% inhibition, isolate Exser1
  MIC50: 4 µg/mL
[2]; read-out: MIC 100% inhibition, isolate Exser1
  MIC: 8 µg/mL
[3]; ATCC27853, isolate ATCC 27853
  MIC: > 64 µg/mL
[3]; isolate AR-230
  MIC: > 64 µg/mL
[3]; isolate J4242
  MIC: > 64 µg/mL
[4]; read-out: MIC 50% inhibition, isolate Apo1
  MIC50: 8 µg/mL
[4]; read-out: MIC 50% inhibition, isolate Apo2
  MIC50: 2 µg/mL
[4]; read-out: MIC 50% inhibition, isolate Apo3
  MIC50: 16 µg/mL
[4]; read-out: MIC 100% inhibition, isolate Apo1
  MIC: 8 µg/mL
[4]; read-out: MIC 100% inhibition, isolate Apo2
  MIC: 4 µg/mL
[4]; read-out: MIC 100% inhibition, isolate Apo3
  MIC: 32 µg/mL
[5]
  MIC: 8 µg/mL
[6]; read-out: MIC 50% inhibition, isolate FO1
  MIC50: 8 µg/mL
[6]; read-out: MIC 50% inhibition, isolate FS2
  MIC50: 16 µg/mL
[6]; read-out: MIC 50% inhibition, isolate FSI
  MIC50: 8 µg/mL
[6]; read-out: MIC 100% inhibition, isolate FO1
  MIC: 16 µg/mL
[6]; read-out: MIC 100% inhibition, isolate FS2
  MIC: 16 µg/mL
[6]; read-out: MIC 100% inhibition, isolate FSI
  MIC: 16 µg/mL
[7]; Staphylococcus aureus, ATCC29213, isolate ATCC 29213, read-out: MIC
  MIC: 8 µg/mL
[7]; Staphylococcus aureus, isolate 6215, read-out: MIC
  MIC: 8 µg/mL
[7]; isolate 6229
  MIC: 8 µg/mL
[8]; isolate Emerg3
  MIC 100% inhibition: 4 µg/mL
[8]; read-out: MIC 50% inhibition, isolate Emerg2
  MIC50: 4 µg/mL
[8]; read-out: MIC 50% inhibition, isolate Emerg3
  MIC50: 2 µg/mL
[8]; read-out: MIC 100% inhibition, isolate Emerg2
  MIC: 4 µg/mL
[9]; read-out: MIC 50% inhibition, isolate Blasto1
  MIC50: 1 µg/mL
[9]; read-out: MIC 50% inhibition, isolate Blasto2
  MIC50: 4 µg/mL
[9]; read-out: MIC 50% inhibition, isolate Blasto3
  MIC50: 8 µg/mL
[9]; read-out: MIC 100% inhibition, isolate Blasto1
  MIC: 2 µg/mL
[9]; read-out: MIC 100% inhibition, isolate Blasto2
  MIC: 4 µg/mL
[9]; read-out: MIC 100% inhibition, isolate Blasto3
  MIC: 8 µg/mL
[10]; read-out: MIC 50% inhibition
  MIC50: 2 µg/mL
[10]; read-out: MIC 100% inhibition
  MIC: 4 µg/mL
[11]; ATCC90028, read-out: MIC 50% inhibition, isolate ATCC 90028
  MIC50: 4 µg/mL
[11]; ATCC90028, read-out: MIC 100% inhibition, isolate ATCC 90028
  MIC: 4 µg/mL
[11]; read-out: MIC 50% inhibition, isolate CA3
  MIC50: 4 µg/mL
[11]; read-out: MIC 50% inhibition, isolate SC5314
  MIC50: 8 µg/mL
[11]; read-out: MIC 100% inhibition, isolate CA3
  MIC: 4 µg/mL
[11]; read-out: MIC 100% inhibition, isolate SC5314
  MIC: 8 µg/mL
[12]; ATCC6258, read-out: MIC 50% inhibition
  MIC50: 4 µg/mL
[12]; ATCC6258, read-out: MIC 100% inhibition
  MIC: 4 µg/mL
[13]; read-out: MIC 50% inhibition, isolate HC1
  MIC50: 4 µg/mL
[13]; read-out: MIC 50% inhibition, isolate HC2
  MIC50: 2 µg/mL
[13]; read-out: MIC 50% inhibition, isolate HC3
  MIC50: 8 µg/mL
[13]; read-out: MIC 100% inhibition, isolate HC1
  MIC: 4 µg/mL
[13]; read-out: MIC 100% inhibition, isolate HC2
  MIC: 4 µg/mL
[13]; read-out: MIC 100% inhibition, isolate HC3
  MIC: 8 µg/mL
[14]; Scedosporium, read-out: MIC 50% inhibition, isolate 00-180
  MIC50: 4 µg/mL
[14]; Scedosporium, read-out: MIC 100% inhibition, isolate 00-180
  MIC: 8 µg/mL
[14]; Scedosporium, read-out: MIC 100% inhibition, isolate LPI
  MIC: 8 µg/mL
[14]; Scedosporium, read-out: MIC 100% inhibition, isolate Scedo1
  MIC: 4 µg/mL
[14]; isolate LPI
  MIC 50% inhibition: 4 µg/mL
[14]; isolate Scedo1
  MIC 50% inhibition: 4 µg/mL
[15]; ATCC204304, read-out: MIC 50% inhibition, isolate ATCC 204304
  MIC50: 4 µg/mL
[15]; ATCC204304, read-out: MIC 100% inhibition, isolate ATCC 204304
  MIC: 4 µg/mL
[15]; read-out: MIC 50% inhibition, isolate Aflav2
  MIC50: 8 µg/mL
[15]; read-out: MIC 50% inhibition, isolate Aflav3
  MIC50: 4 µg/mL
[15]; read-out: MIC 100% inhibition, isolate Aflav2
  MIC: 16 µg/mL
[15]; read-out: MIC 100% inhibition, isolate Aflav3
  MIC: 8 µg/mL
[16]; read-out: MIC 50% inhibition
  MIC50: 4 µg/mL
[16]; read-out: MIC 100% inhibition
  MIC: 4 µg/mL
[17]; ATCC17978, isolate ATCC 17978
  MIC: 64 µg/mL
[17]; isolate AR-88
  MIC: 64 µg/mL
[17]; isolate AR-273
  MIC: > 64 µg/mL

## COc1cc(C)c2c(Oc3cccc(C(F)(F)F)c3)c(OC)cc(NC(C)CCCN)c2n1 (centres unmarked) [Tafenoquine, N(4)-[2,6-Dimethoxy-4-methyl-5-[3-(trifluoromethyl)phenoxy]quinolin-8-yl]pentane-1,4-diamine]
[18]
  CC50s: 13 to 17 µM
[19]
  pulmonary fungal burden: dose-related, albeit non-statistically significant trend towards reduced fungal burden
[19]; followed until day 12
  survival versus vehicle control: no statistical differences in survival
[20]
  fold more potent than primaquine (average 50% inhibitory concentrations): 7.1 fold
[21]; ATCC27294, 168 h, 7H9 with BSA, DPPC and cholesterol, 1 week, read-out: MIC
  MIC: 9.4 µg/mL (≈ 20.3 µM)
[21]; ATCC27294, 168 h, 7H9 with casitone and DPPC, 1 week, read-out: MIC
  MIC: 4.7 µg/mL (≈ 10.1 µM)
[21]; ATCC27294, 168 h, 7H9 with glucose and BSA, 1 week, read-out: MIC
  MIC: 12.5 µg/mL (≈ 27 µM)
[21]; ATCC27294, 168 h, 7H9 with glucose and casitone, 1 week, read-out: MIC
  MIC: 4.7 µg/mL (≈ 10.1 µM)
[21]; ATCC27294, 336 h, 7H9 with BSA, DPPC and cholesterol, 2 weeks, read-out: MIC
  MIC: 12.5 µg/mL (≈ 27 µM)
[21]; ATCC27294, 336 h, 7H9 with casitone and DPPC, 2 weeks, read-out: MIC
  MIC: 6.25 µg/mL (≈ 13.5 µM)
[21]; ATCC27294, 336 h, 7H9 with glucose and BSA, 2 weeks, read-out: MIC
  MIC: 19 µg/mL (≈ 41 µM)
[21]; ATCC27294, 336 h, 7H9 with glucose and casitone, 2 weeks, read-out: MIC
  MIC: 6.25 µg/mL (≈ 13.5 µM)
[21]; ATCC27294, range over Examples 19-22, read-out: MIC against replicating forms of tuberculosis in vitro
  MIC: 4.7 to 18 µg/mL (≈ 10.1 to 38.8 µM)
[22]
  ratio between steady state and single dose concentrations: approximately 3.3
[23]
  ratio of the blood cell:plasma concentration: 1.4
[24]
  EC50: 8.6 µM
[25]; prophylaxis
  corresponding steady state plasma level: ~36 nanogram/ml
  effective minimum inhibitory concentration in lungs: 23 micrograms/g
[25]; treatment
  corresponding steady state plasma level: approximately 125 nanogram/ml
  effective minimum inhibitory concentration in lungs: 81 micrograms/g
